{"source": "patent US12227771B2", "about": "“Expression systems and methods of use thereof” (Janssen Pharmaceutica NV, priority 2019, dated 2025)", "key": {"α9α10 nAChR [1]": {"molecular_target": "T1, α9α10 nAChR (Homo sapiens, UniProt Q9GZZ6+Q9UGM1)", "T1 construct": "expressed in transfected cells; host or cells: HEK293T", "assay": "cell-based", "type": "cell-based", "conditions": "for rank order of potency of antagonists: dose response curves", "excerpt": "After three washes, the plates were placed in the FLIPR stage. […] Maximal FLIPR responses to ACh were plotted (FIGS. 3A-C)."}, "α9α10 nAChR [2]": {"molecular_target": "T1, α9α10 nAChR", "assay": "FLIPR calcium assay of HEK293T cells co-transfected with α9α10 nAChR and cDNA clones, response evoked by 200 μM ACh", "type": "cell-based", "conditions": "200 μM ACh; for FLIPR Response (Fold/Baseline): 180 s", "description": "Human embryonic kidney 293T (HEK293T) cells were cultured in high glucose DMEM medium supplemented with 10% FBS, sodium pyruvate and penicillin/streptomycin. Prior to transfection, cells were seeded at ˜80-90% confluence in 384-well fluorescence imaging plate reader (FLIPR) assay plates. After a 4 hour (hr) incubation, wells of cells were individually co-transfected with human α9α10 nAChR plus one of 20,000 clones from cDNA libraries encoding most all human proteins (Origene Technologies; Rockville, Md.; Broad Institute; Cambridge, Mass.) using Fugene HD (Promega; Madison, Wis.) according to the manufacture's protocol. After two days incubation, cells were washed three times with assay buffer (137 mM NaCl, 4 mM KCl, 2 mM CaCl2, 1 mM MgCl2, 5 mM glucose, 10 mM HEPES pH7.4) and loaded with Calcium5 dye (Molecular Devices; San Jose, Calif.) and 1.25 mM probenecid for 1 hr at room temperature (RT). After three washes, the plates were placed in the FLIPR stage.\nTo further characterize the regulation of α9α10 nAChR expression, HEK293T cells were co-transfected with α9α10 nAChR and each of CHAT, TMIE, TMEM100, TMEM132A, TMEM132C, TMEM132D, TMEM132E and TNFRSF10A individually and in combination (Table 2)."}}, "note": "Values joined by “and” are separate entries in the source; they are usually repeats but may differ in a detail not shown here. Equal entries are not always repeated. Where two headings read alike, the source gives them in different places."}
{"molecule": "CN1[C@@H]2CC[C@H]1C[C@@H](OC(=O)C(CO)c1ccccc1)C2", "note": "(stereo partly drawn) [Atropine, atropine]", "values": [{"measurement": "IC50", "setting": "α9α10 nAChR [1]; HEK293T, α9α10 nAChR + CHAT + TMIE, 200 μM ACh, read-out: Antagonist IC50", "result": 340, "unit": "µM"}, {"measurement": "IC50", "setting": "α9α10 nAChR [1]; HEK293T, α9α10 nAChR + CHAT, 200 μM ACh, read-out: Antagonist IC50", "result": 12.3, "unit": "µM"}, {"measurement": "IC50", "setting": "α9α10 nAChR [1]; HEK293T, α9α10 nAChR + TMIE, 200 μM ACh, read-out: Antagonist IC50", "result": 15.7, "unit": "µM"}, {"measurement": "rank order of potency of antagonists", "setting": "α9α10 nAChR [1]; 200 μM ACh", "result": "MLA>strychnine>atropine>nicotine"}]}
{"molecule": "CN1CCCC1c1cccnc1", "note": "(stereo not drawn) [Nicotine, nicotine]", "values": [{"measurement": "IC50", "setting": "α9α10 nAChR [1]; Antagonist IC50", "result": "384 µM and 544 µM and 1500 µM"}, {"measurement": "rank order of potency of antagonists", "setting": "α9α10 nAChR [1]; 200 μM ACh", "result": "MLA>strychnine>atropine>nicotine"}]}
{"molecule": "O=C1C[C@@H]2OCC=C3CN4CC[C@]56c7ccccc7N1[C@H]5[C@H]2[C@H]3C[C@H]46", "note": "[Strychnine, strychnine]", "values": [{"measurement": "IC50", "setting": "α9α10 nAChR [1]; Antagonist IC50, HEK293T, α9α10 nAChR + CHAT + TMIE, 200 μM ACh", "result": 1.8, "unit": "µM"}, {"measurement": "IC50", "setting": "α9α10 nAChR [1]; Antagonist IC50, HEK293T, α9α10 nAChR + CHAT, 200 μM ACh", "result": 1.3, "unit": "µM"}, {"measurement": "IC50", "setting": "α9α10 nAChR [1]; Antagonist IC50, HEK293T, α9α10 nAChR + TMIE, 200 μM ACh", "result": 0.76, "unit": "µM"}]}
{"molecule": "TNFRSF10A: Tumor necrosis factor receptor superfamily member 10A, SEQ ID NO: 10, co-transfected cDNA clone", "values": [{"measurement": "FLIPR Response (Fold/Baseline)", "setting": "α9α10 nAChR [2]; HEK293T co-transfected with α9α10 nAChR + CHAT plus the named gene", "result": 2.0, "unit": "Fold/Baseline"}, {"measurement": "FLIPR Response (Fold/Baseline)", "setting": "α9α10 nAChR [2]; HEK293T co-transfected with α9α10 nAChR plus the named gene", "result": 0.4, "unit": "Fold/Baseline"}, {"measurement": "functional expression of co-transfected α9α10 nAChR in cDNA library screen", "setting": "α9α10 nAChR [2]; HEK293T, 20,000 cDNA clones", "result": "enabled functional expression"}]}
